From patent publication US6274715A, “Tricyclic erythromycin derivatives” (priority 1997, dated 2001)
In brackets after ≈: the same amount, converted by molar mass.

Assays:
[1] = tested on: STAPHYLOCOCCUS AUREUS ATCC 6538P; assay: In vitro antibacterial activity, MIC, BHI agar dilution; format: cell-based; conditions: S. aureus ATCC 6538P, 35-37° C., 20 to 24 hours, unit assumed
[2] = tested on: STAPHYLOCOCCUS AUREUS A5177; assay: as above; format: cell-based; conditions: S. aureus A5177, unit assumed
[3] = tested on: STAPHYLOCOCCUS AUREUS A-5278; assay: as above; format: cell-based; conditions: S. aureus A-5278, unit assumed
[4] = tested on: STAPHYLOCOCCUS AUREUS CMX 642A; assay: as above; format: cell-based; conditions: S. aureus CMX 642A, unit assumed
[5] = tested on: STAPHYLOCOCCUS AUREUS NCTC10649M; assay: as above; format: cell-based; conditions: S. aureus NCTC10649M, unit assumed
[6] = tested on: STAPHYLOCOCCUS AUREUS CMX 553; assay: as above; format: cell-based; conditions: S. aureus CMX 553, unit assumed
[7] = tested on: STAPHYLOCOCCUS AUREUS 1775; assay: as above; format: cell-based; conditions: S. aureus 1775, unit assumed
[8] = tested on: STAPHYLOCOCCUS EPIDERMIDIS 3519; format: cell-based; conditions: S. epidermidis 3519; BHI agar; unit assumed
[9] = tested on: EN[…] ATCC 8043; assay: In vitro antibacterial activity, MIC, BHI agar dilution; format: cell-based; conditions: E. faecium ATCC 8043, unit assumed
Outline: (§1)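 Twelve successive aqueous dilutions of compound in Brain Heart Infusion agar were inoculated with 1:100 culture dilutions (1:10 for slow growers such as Micrococcus, Streptococcus) by Steers replicator and incubated at 35-37° C for 20 to 24 hours. MIC was the lowest concentration giving no growth, slight haze or sparse colonies versus drug-free control.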

[10] = tested on: M[…] ATCC 4698; assay: as above; format: cell-based; conditions: M. luteus ATCC 4698, unit assumed
Outline: as §1

[11] = tested on: M[…] ATCC 9341; assay: as above; format: cell-based; conditions: M. luteus ATCC 9341, unit assumed
Outline: as §1

[12] = tested on: STR[…] 508; assay: as above; format: cell-based; conditions: S. agalactiae CMX 508, unit assumed
Outline: as §1

[13] = tested on: STREPTOCOCCUS BOVIS A-5169; assay: as above; format: cell-based; conditions: S. bovis A-5169, unit assumed
[14] = tested on: STREPTOCOCCUS PYOGENES EES61; assay: as above; format: cell-based; conditions: S. pyogenes EES61, unit assumed
[15] = tested on: STREPTOCOCCUS PYOGENES 930; assay: as above; format: cell-based; conditions: S. pyogenes 930, unit assumed
[16] = tested on: STREPTOCOCCUS PYOGENES PIU 2548; assay: as above; format: cell-based; conditions: S. pyogenes PIU 2548, unit assumed
[17] = tested on: ESCHERICHIA COLI JUHL; format: cell-based; conditions: E. coli JUHL; BHI agar; unit assumed
[18] = tested on: ESCHERICHIA COLI SS; assay: In vitro antibacterial activity, MIC, BHI agar dilution; format: cell-based; conditions: E. coli SS, unit assumed
[19] = tested on: ESCHERICHIA COLI DC-2; assay: as above; format: cell-based; conditions: E. coli DC-2, unit assumed
[20] = tested on: ESCHERICHIA COLI H560; assay: as above; format: cell-based; conditions: E. coli H560, unit assumed
[21] = tested on: ESCHERICHIA COLI KNK 437; format: cell-based; conditions: E. coli KNK 437; BHI agar; unit assumed
[22] = tested on: ENTEROBACTER AEROGENES ATCC 13048; assay: In vitro antibacterial activity, MIC, BHI agar dilution; format: cell-based; conditions: E. aerogenes ATCC 13048, unit assumed
[23] = tested on: KLEBSIELLA PNEUMONIAE ATCC 8045; assay: as above; format: cell-based; conditions: K. pneumoniae ATCC 8045, unit assumed
[24] = tested on: PROVIDENCIA STUARTII CMX 640; format: cell-based; conditions: P. stuartii CMX 640; BHI agar; unit assumed
[25] = tested on: PSEUDOMONAS AERUGINOSA BMH10; assay: In vitro antibacterial activity, MIC, BHI agar dilution; format: cell-based; conditions: P. aeruginosa BMH10, unit assumed
[26] = tested on: PSEUDOMONAS AERUGINOSA 5007; assay: as above; format: cell-based; conditions: P. aeruginosa 5007, unit assumed
[27] = tested on: PSEUDOMONAS AERUGINOSA K799/WT; assay: as above; format: cell-based; conditions: P. aeruginosa K799/WT, unit assumed
[28] = tested on: PSEUDOMONAS AERUGINOSA K799/61; assay: as above; format: cell-based; conditions: P. aeruginosa K799/61, unit assumed
[29] = tested on: PSEUDOMONAS CEPACIA 296I; assay: as above; format: cell-based; conditions: P. cepacia 296I, unit assumed
[30] = tested on: PSEUDOMONAS AERUGINOSA DPHD-5263; assay: as above; format: cell-based; conditions: P. aeruginosa DPHD-5263, unit assumed
[31] = tested on: PSEUDOMONAS AERUGINOSA DPHD-2862; assay: as above; format: cell-based; conditions: P. aeruginosa DPHD-2862, unit assumed
[32] = tested on: CANDIDA ALBICANS CCH 442; assay: as above; format: cell-based; conditions: C. albicans CCH 442, unit assumed
[33] = tested on: MYCOBACTERIUM SMEGMATIS ATCC 114; assay: as above; format: cell-based; conditions: M. smegmatis ATCC 114, unit assumed
[34] = tested on: H. Influenza Dill AMP R; assay: In vitro antibacterial activity against H. Influenza Dill AMP R, MIC; format: cell-based; conditions: separate assay, unit assumed
Outline: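 Agar dilution in Brain Heart Infusion agar, twelve successive compound dilutions, inoculated by Steers replicator with 1:100 (1:10 for slow growers) culture dilutions. Incubation 35-37° C. for 20 to 24 hours; MIC is lowest concentration giving no growth, slight haze or sparse colonies versus drug-free control.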

[35] = tested on: Grarn-negative bacteria; conditions: background statement; cited from earlier work

CC[C@H]1OC(=O)[C@H](C)[C@@H](O[C@H]2C[C@@](C)(OC)[C@@H](O)[C@H](C)O2)[C@H](C)[C@@H](O[C@@H]2O[C@H](C)C[C@H](N(C)C)[C@H]2O)[C@](C)(O)C[C@@H](C)C(=O)[C@H](C)[C@@H](O)[C@]1(C)O [Ery A, Erythromycin A, reference compound]
MIC [1]: 0.2 µg/mL (≈ 0.273 µM)
MIC [2]: 6.2 µg/mL (≈ 8.45 µM)
MIC [3]: > 100 µg/mL
MIC [4]: 0.39 µg/mL (≈ 0.531 µM)
MIC [5]: 0.2 µg/mL (≈ 0.273 µM)
MIC [6]: 0.2 µg/mL (≈ 0.273 µM)
MIC [7]: > 100 µg/mL
MIC [8]: 0.39 µg/mL (≈ 0.531 µM)
MIC [9]: 0.05 µg/mL (≈ 0.0681 µM)
MIC [10]: 0.2 µg/mL (≈ 0.273 µM)
MIC [11]: 0.02 µg/mL (≈ 0.0273 µM)
MIC [12]: 0.05 µg/mL (≈ 0.0681 µM)
MIC [13]: 0.05 µg/mL (≈ 0.0681 µM)
MIC [14]: 0.05 µg/mL (≈ 0.0681 µM)
MIC [15]: > 100 µg/mL
MIC [16]: 6.2 µg/mL (≈ 8.45 µM)
MIC [17]: 100 µg/mL (≈ 136 µM)
MIC [18]: 0.2 µg/mL (≈ 0.273 µM)
MIC [19]: > 100 µg/mL
MIC [20]: 25 µg/mL (≈ 34.1 µM)
MIC [21]: 50 µg/mL (≈ 68.1 µM)
MIC [22]: 100 µg/mL (≈ 136 µM)
MIC [23]: 100 µg/mL (≈ 136 µM)
MIC [24]: > 100 µg/mL
MIC [25]: > 100 µg/mL
MIC [26]: > 100 µg/mL
MIC [27]: 50 µg/mL (≈ 68.1 µM)
MIC [28]: 0.78 µg/mL (≈ 1.06 µM)
MIC [29]: > 100 µg/mL
MIC [30]: > 100 µg/mL
MIC [31]: > 100 µg/mL
MIC [32]: > 100 µg/mL
MIC [33]: 0.02 µg/mL (≈ 0.0273 µM)
MIC [34]: 4 µg/mL (≈ 5.45 µM)
activity against Gram-negative bacteria [35]: only weak activity
